# Laboratory results from US12636368B2, “Ionizable lipids for nucleic acid delivery” (Global Life Sciences Solutions Canada ULC, priority 2019, dated 2026).
# Read-outs that look alike come from different tables or passages of the source.
# Assays:
# [1] = TNS assay, surface pKa of lipid nanoparticles; assay type: physicochemical
# Description: In embodiments of the invention, the experimental pKa of formulated lipid nanoparticles comprising lipids in Table 1 is calculated using the 2-(p-toluidinyl)naphthalene-6-sulfonic acid (TNS) assay. The procedure for the TNS assay is described in Example 25.
# The pKa of each cationic lipid was determined in lipid nanoparticles using an assay based on fluorescence of 6-(p-Toluidino)-2-naphthalenesulfonic acid sodium salt (TNS, Sigma Aldrich), which is a fluorescent probe for the conformational state of proteins5. Empty lipid nanoparticles comprising ionizable lipid in LM02 composition in distilled water at a concentration of 3.125 mM total lipid are formulated using NanoAssemblr® Spark™, and were then was characterized for LNP quality on the Zetasizer™ using a 30× dilution with 1×PBS in the low volume cuvette. Lipid nanoparticles were further diluted 4× using distilled water to 0.781 mM total lipid. TNS was prepared as a 25 μM stock solution in distilled water. Then 6.4 μL of diluted LNP samples of 0.781 mM total lipid were mixed with 10 μL of diluted TNS to a final volume of 250 μL with buffer containing 10 mM HEPES, 10 mM MES, 10 mM NH4OAc and 130 mM NaCl where the pH ranged from 3 to 9 in 0.5 pH increments.
# Samples were mixed thoroughly, and the fluorescence intensity was measured at room temperature in a BioTek™ Synergy™ H1 Hybrid Multi-Mode Monochromator™ Fluorescence Microplate Reader using excitation and emission wavelengths of 321 nm and 445 nm respectively. A sigmoidal best fit analysis was applied to the fluorescence data using GraphPad Prism™ software, and the pKa was measured as the pH at half-maximal fluorescence intensity.
# [2] = tested on: human T cells; assay: eGFP ELISA after eGFP mRNA LNP treatment of human T cells; assay type: cell-based; details: Table 4; for Fold Change Relative to MC3: eGFP (pg) relative to MC3; for eGFP: quantity of expressed eGFP, eGFP mRNA LNPs, CT10
# Description: Reagents were acquired from Abcam, Cambridge, UK unless otherwise stated. […] The assay was performed as directed by the eGFP SimpleStep ELISA® Kit protocol. Briefly; frozen human T cells, previously isolated from fresh human whole blood using a negative selection protocol, were thawed and activated using a triple activator. […] After 48 hours of treatment with mRNA LNPs the T cells were harvested and lysed for total eGFP content.
# In order to expose the isolated and activated T cells (Day 0) to the formulated mRNA, 2 ug of CleanCap™ eGFP (Trilink Biotechnologies, San Diego, CA) mRNA-containing LNP was added to 500,000 T cells in 1 mL of complete T cell media, with 1 ug/mL of Recombinant Human ApoE4 (“ApoE”) (Peprotech Inc., Montreal, Canada).
# Frozen human T cells, previously isolated from fresh human whole blood using a negative selection protocol, were thawed and activated using a triple activator. At 10 days post-activation, T cells were dosed with CT10 mRNA LNPs LNP comprising DLin-MC3-DMA, PNI 76, PNI 119, PNI 120, PNI 121, and PNI 122 encoding eGFP at 2 pg mRNA per 500,000 cells and N/P 10. Protein expression was measured after 48 hours by eGFP ELISA.
# [3] = Nucleic acid encapsulation efficiency by RiboGreen assay; assay type: physicochemical
# Description: Messenger RNA or plasmid NAT was diluted using sodium acetate buffer to the required concentration. Lipid nucleic acid particle samples were then prepared by running both fluids using the NanoAssemblr® Spark instrument. […] The lipid nucleic acid particles made in the instrument were immediately diluted down with 48 μL Ca and Mg free 1×PBS at pH 7.4 in the aqueous output well. These nucleic acid lipid particles were immediately collected into microcentrifuge tubes containing 96 μL of Ca and Mg free 1×PBS at pH 7.4. Encapsulation efficiency was measured by a modified Ribogreen™ assay (Quanti-iT RiboGreen™ RNA assay kit, Fisher). Observed particle attributes were generally sized from 60-200 nm for mRNA, depending on lipid composition and method of production.
# (§1) Physical characteristics of lipid nanoparticle (LNP) compositions comprising compounds according to Formula (I) and that were manufactured on the NanoAssemblr® Spark and Benchtop, are shown in Tables 6 and 7 below. Size, size variation of the LNP (PDI), encapsulation efficiency, and pKa are shown. The physical characteristics of these LNP are important from a standpoint of stability, biodistribution, and cell membrane crossing. There was good encapsulation in all the formulations, with polydispersity (PDI) under 0.3. Size and PDI were measured using dynamic light scattering techniques, and nucleic acid encapsulation efficiency was calculated from a modified Quant-iT RiboGreen RNA assay.
# [4] = tested on: C56BL/6 mice; assay: hEPO expression in mice after i.v. EPO mRNA LNPs; assay type: in vivo
# Description: C56BL/6 mice were administered i.v doses of 0.5, 1 or 3 mg/Kg of recombinant human EPO-encoded mRNA LNPs containing ionizable lipids MC3, PNI 76, PNI 121 and PNI 127 using the LM02 composition at N/P 6; hEPO protein was measured using Quantikine® IVD® ELISA Human Erythropoietin Immunoassay protocol. Results for the 0.5 mg/Kg dosage are shown in the scatter plot of FIG. 7. Results for the 1 and 3 mg/Kg doses are shown in FIG. 8 as scatter plots of hEPO expression levels at 6 h (left) and 24 h (right).
# In another study, 5-moU EPO mRNA encapsulated in LM02 LNP at an N/P ratio of 6 and a dose of 0.5 mg/Kg comprising a variety of […] ionizable lipids (PNI 336, PNI 534, PNI 535, PNI 342, PNI 321, PNI 532, PNI 538, PNI 541, PNI 325, PNI 328, PNI 329, PNI 539, PNI 540, PNI 127); along with MC3 as a control, were administered. hEPO protein was measured using ProteinSimple® Ella platform, and the rhEPO microfluidic cartridges provided by the manufacturer.
# Blood from mice treated with hEPO mRNA LNP was analyzed using an automated ELISA platform “ELLA”, using Simplex™ antibody panel cartridges. Human-specific EPO and mouse-specific IL-5, IL-6, TNF-α, and IFN-γ were measured (reagents from Bio-techne). Briefly, 50 μL of sample reagent (diluted biological sample, quality control, or calibration point sample) were aliquoted into each sample inlet, and 1 mL of wash buffer was added into corresponding inlets on the cartridge. All immunoassay operations (including prime system, flow samples and split them into channels, sample incubation, wash, rehydrate and flow secondary antibody, wash, rehydrate and flow streptavidin dye conjugate, incubate, wash, scan) were processed automatically. Raw signal levels (relative fluorescence units, RFUs), mean signal values, standard deviation, and coefficient of variance (CV) for each glass nanoReactor (GNR) value are provided. RFU values are automatically backfit by the ELLA to produce an analyte concentration per analyte/sample using the manufacturer given calibration methodology.
# Reagents were acquired from Quantikine, Minneapolis, MN. The assay was performed as directed on the Quantikine® IVD® ELISA Human Erythropoietin Immunoassay protocol REF DEP00 Package Insert. Briefly; Sera samples of 6 h, and/or 24 h post intravenous administration of 0.5, 1 or 3 mg/kg dose of EPO-encoded mRNA were analyzed for EPO expression analysis, and expressed as mIU/mL. To an EPO antibody pre-coated 96-well microplate, provided by the manufacturer, standards, appropriately diluted sera, and the Horseradish peroxidase (HRP)-conjugated rabbit anti-EPO polyclonal antibody and TMB (Tetramethylbenzidine) as the substrate were added and incubated for 20 minutes. Stop solution (Sulfuric Acid) was added to the wells and the plate was read at 450 nm and the concentration of EPO was calculated. The amount of colour generated is directly proportional to the amount of the conjugate bound to EPO antibody, which in turn is directly proportional to the amount of EPO in the specimen or standard. A standard curve was generated by plotting absorbance versus concentration of provided standards. Quantikine® Human Serum Controls (CEP 01, CEP 03) were used for internal controls.
# [5] = LNP size and PDI by dynamic light scattering; assay type: physicochemical
# Description: After the lipid particles were made as described supra, particle size (hydrodynamic diameter of the particles) was determined by Dynamic Light Scattering (DLS) using a ZetaSizer™ Nano ZS™ (Malvern Instruments, UK). He/Ne laser tuned to 633 nm wavelength was used as the light source. Data were measured from the scattered intensity data conducted in backscattering detection mode (measurement angle=173). Measurements were an average of 10 runs of two cycles each per sample. Z-Average size was reported as the particle size, and is defined as the harmonic intensity averaged particle diameter.
# as §1
# [6] = tested on: isolated primary human T cells; assay: GFP mRNA-LNP transfection of primary human T cells, flow cytometry; assay type: cell-based; details: Table 4; transfection efficiency, eGFP mRNA LNPs, CT10, N/P 8
# Description: Reagents were from Stemcell Technologies unless otherwise stated. Tcells were isolated from a single donor. At 48 h following lipid particle mRNA exposure, the treated T cells were harvested by transferring the cell suspensions to pre-labeled 1.5 mL tubes and centrifuged 300×g at 4 degrees C. for 10 minutes. Supernatant was removed and the pellet resuspended in PBS. An amount of 0.5 ul of BD Horizon™ Fixable Viability Stain 575V™ (BD Biosciences), was added, and the mixture incubated in the dark for 10 minutes at RT. This stain binds to amines.
# The cells were centrifuged again as before, then washed twice with 1 mL of stain buffer (BSA, BD Pharminigen), and the washed pellet was diluted in 100 μl BSA. The following antibodies were added to each tube of treated cells in 2 μl volumes: CD25, CD8, CD4, (PerCP-Cy™ 5.5 Mouse Anti Human CD25, BV786 Mouse Anti-Human CD8 Clone RPA-T8, APC-Cy™7 Mouse Anti-Human CD4 Clone SK3 (all from BD Pharmingen) with the exception of the controls: in the eGFP only sample and viability control, no antibody was added. In the single stain compensation tubes, only one antibody per tube was added.
# The tubes were incubated at 4 degrees C. for 30 min, whereupon […] of stain buffer was added, and the cells were centrifuged again. Cells were washed once with 1 mL of stain buffer and spun down again as in step one. Cell pellets were resuspended in 1 mL of stain buffer and added to pre-labeled flow tubes with cell strainer caps (Corning Falcon). […]
# GFP MFI was measured by flow cytometry 48 hours after LNP addition. T cells were isolated from whole blood using a negative isolation procedure (EasySep™ Human T Cell Isolation Kit, Stemcell Technologies). T cells were dosed with mRNA-LNPs 3 days after activation with 500 ng of encapsulated mRNA per 125,000 cells. The LNP were CT10 compositions with an N/P of 8. Transfection efficiency (upper graph) and MFI (lower graph) were measured by flow cytometry 48 h after LNP addition.
# [7] = Table 4, determined by TNS assay, read-out: pKa Ex.
# [8] = Table 6, GFP-encoded LNPs, CT10, N/P 8
# [9] = Table 7, EPO mRNA LNPs, LM02, N/P 6
"pKa [1, 7]","pKa ([1]; Table 1, formulated lipid nanoparticles, TNS assay, read-out: Exp. pKa)","pKa ([1]; Table 8, read-out: Exp.pKa)","Encapsulation Efficiency (%) [3, 8] [%]","Encapsulation Efficiency (%) [3, 9] [%]","Diameter (Z. ave, nm) [5, 8] [nm]","Polydispersity Index (PDI) [5, 8]","Diameter (Z. ave, nm) [5, 9] [nm]","Polydispersity Index (PDI) [5, 9]",SMILES,Fold Change Relative to MC3 [2],eGFP [2] [pg],"hEPO protein level compared with MC3 ([4]; FIG. 9, 5-moU EPO mRNA, LM02, N/P 6, 0.5 mg/Kg, 6 h)","protein expression in vivo compared with MC3 ([4]; summary, Table 7 and Figures)",% eGFP + [6] [%]
7.48,–,–,–,–,–,–,–,–,CCCCCCCCCCCCCC(=O)O[C@@H]1[C@@H](OC(=O)CCCCCCCCCCCCC)CO[C@@H]1COC(=O)CCCN(C)C [PNI],0.589,807.0,–,–,–
–,5.6,5.6,93.5,88.1,60.6,0.08,65.7,0.05,CCCCC/C=C\C/C=C\CCCCCCCC(=O)O[C@@H]1[C@@H](OC(=O)CCCCCCC/C=C\C/C=C\CCCCC)CO[C@@H]1COC(=O)CC1CCCCN1C (mixture of isomers) [PNI 540],–,–,compare well to MC3,equivalent to MC3,–
5.99,–,–,–,–,–,–,–,–,"CCCCC/C=C\C/C=C\CCCCCCCCC(CCCCCCCC/C=C\C/C=C\CCCCC)OC(=O)CCCN(C)C [MC 3, DLin-MC3-DMA, reference compound]",1,1370.0,–,–,58.95
